Read-outs that look alike come from different tables or passages of the source.
What was measured:
Solubility in PBS = details: for Solubility in PBS, Class: Pharmacopeia solubility class, PBS pH 7.4, 25 °C
Protocol: The solubility in PBS solution was determined by placing 1 g (±0.0001) of tested compound in a round-bottom flask and adding specific parts of the PBS solution in portions until full dissolution. The samples were vigorously stirred for at least 5 min before the addition of the next portion of PBS, and the systems were thermostated at 25 °C. Three repetitions of the measurement were performed for each of the compounds.
Most studies on the solubility of novel APIs are carried out with pure water, aqueous PBS solutions were much more preferred due to their higher similarity to intra- and intercellular media in epidermis, while envisaging their use in transdermal delivery and skin care applications.[60] […] The collected data are presented in Figure 8 (as well as in Table S6 in the Supporting Information).

[1] = Contact angle of aqueous solutions, sessile drop method on paraffin; format: physicochemical; details: aqueous solution, 25 °C
Protocol: The contact angle (CA) measurements were carried out using a DSA100S analyzer (Krüss, Germany, accuracy ±0.1°), at 25 °C. The determination of the contact angle was based on the sessile drop method, i.e., drops of the analyzed solution were deposited on a solid surface (paraffin). The images of the drops were taken with a CCD camera, digitized, and evaluated using Young–Laplace fitting. The CA was determined as the slope of the tangent line at the contact point between the 3 phases (solution, paraffin surface, and air).
In the case of seborrheic skin, which occurs among many people affected by acne, the epidermis is covered by a hydrophobic lipid layer, which impedes the penetration of active substances, especially those that are well soluble in water. In addition, ensuring proper drug absorption through the skin can also reduce the risk of side effects and increase the effectiveness of therapy.[72] The addition of surfactants, which improve the wettability of hydrophobic surfaces, can be a solution to this problem.[73],[74] […] Wettability analyses of aqueous solutions of the new APIs were carried out on paraffin, whose hydrophobicity is similar to that of the human skin.[75] Experiments were performed at concentrations corresponding to common NA and SAL contents in commercial formulations (0.25–1.00%).[67],[76],[77] Due to low solubilities of 5–7, tests for these salts were performed at concentrations of 0.25, 0.03, and 0.01%, respectively (please see Figure S43 in the Supporting Information).

[2] = Octanol–water partition coefficient, shake-flask method (OECD Test No. 107); format: physicochemical
Protocol: The octanol–water partition coefficients (KOW) of the synthesized products were estimated by the shake-flask method according to the OECD Test No. 107 guidelines (Partition Coefficient n-Octanol/Water: Shake-Flask Method). Measurements were performed using mutually saturated distilled water and 1-octanol in a glass vial containing a magnetic stir bar. First, the synthesized products were dissolved in distilled water (or 1-octanol) at a chosen concentration (0.01 mol per 1 L of octanol or water), and then proper amounts of the second solvent (octanol or water) were added. Subsequently, two duplicate runs were carried out with different solvent ratios: 4 mL of 1-octanol and 2 mL of water (2:1), 4 mL of 1-octanol and 4 mL of water (1:1), and 4 mL of 1-octanol and 8 mL of water ([…]). All vials were shaken at a constant temperature of 25 °C. After 24 h, all samples were centrifuged and the aqueous and octanolic phases were collected with a syringe. The concentrations of compounds in water were determined spectrophotometrically using a Rayleigh UV-1601 spectrophotometer (Beijing Beifen-Ruili Analytical, China) based on calibration curves made previously (at λmax = 262 nm) vs concentration for each substance. Two repetitions of each measurement were performed in a specific solvent ratio (1:1, 1:2, and 2:1). Finally, the log KOW was calculated as the average of six results collected for each compound.
The outermost layer of the skin (stratum corneum) contains around […] water, a relatively low amount compared to the rest of the human body. Given the hydrophobic nature of 1-octanol, it can be used as a simplified model for the stratum corneum.[50] The octanol–water partition coefficient (KOW) value represents the proportion between the concentrations of a substance in both liquid phases of a system composed of water and 1-octanol. […] The log KOW values are given in Figure 6 (exact values are provided in Table S4, Supporting Information).

Artemia franciscana = assay: Ecotoxicity toward aquatic life, Artoxkit M immobilization test; format: in vivo; details: for EC50: Artemia franciscana; for Class: acute toxicity rating scale by Fish and Wildlife Service
Protocol: To determine the EC50 parameter for compounds, tests were carried out on marine crustaceans—Artemia franciscana (A. franciscana). The methodology proposed in the Artoxkit M test (MicroBioTests Inc., Gent, Belgium) was developed according to the ASTM E1440-91 standard.
The hatching process was started first. For this purpose, 50 mg of cysts was transferred to the Petri dishes attached to the Artoxkit M set, which were then immersed in 10 mL of artificial seawater with a salinity of 35‰ (a medium for the development of the tested organisms, as well as a solvent for preparing solutions of the tested compounds) and placed at a temperature of 25 °C, with access to light (6000–10,000 lux) for 30 h. Then, 2 h before placing them on the Artoxkit M plates, 20 mg of spirulina was added to cultured artemias. In addition, 1 h before the analysis, the used seawater was oxygenated by passing a stream of air through the solution. To each of the four cells in a given row of a plate from the Artoxkit M kit, 1 mL of solution at the specified concentrations (or the appropriate medium in the case of a control) were introduced. In the first column of cells (a control sample and five selected concentrations), no less than 30 artemias were placed from previously prepared Petri dishes. Then, from the first cell in the first column, artemias were collected at the selected concentration and added to the next three cells in the selected row, 10 organisms per cell. After the organisms were introduced into the appropriate cells, the plates were covered with Parafilm and then closed with a plastic cap. The prepared kit was incubated at 25 °C and protected from light. Number of motionless organisms were counted after 24 and 48 h. Immobilization was then calculated (eq 1) in relation to the number of organisms at the start of the test: [drawing 1] 1
Next, the dependence between the effect and concentration of the tested compounds was plotted, and on this basis, an EC50 value was determined.

Staphylococcus aureus = assay: MIC and MBC determination, microdilution method; format: cell-based; details: for MIC: 18 h, read-out: MIC, S. aureus; for MBC: read-out: MBC, S. aureus
Protocol: (§1) The antimicrobial activities of the compounds were tested against clinical strains of an aerobic Gram-negative bacterium—Pseudomonas aeruginosa (P. aeruginosa), facultative anaerobic Gram-positive bacteria—Staphylococcus aureus (S. aureus) and Staphylococcus epidermidis (S. epidermidis), anaerobic Gram-positive bacterium—Cutibacterium acnes (C. acnes), and yeast-like fungus—Candida albicans (C. albicans).
(§2) Aerobic and facultative anaerobic bacteria cultures were grown in Brain Heart Infusion broth (BHI, bioMerieux, France) at 35 °C ± 1 °C for 18 h, C. acnes cultures were grown in thioglycolate broth with resazurin (TGB, bioMerieux, France) at 35 ± 1 °C for 48 h, and yeast cultures were grown in Sabouraud dextrose broth (SDB, Merck, Germany) at 35 ± 1 °C for 24 h. After incubation, each culture was diluted in a suitable liquid medium: P. aeruginosa, S. aureus, and S. epidermidis—Mueller–Hinton broth (MHB; Oxoid, UK); C. acnes—TGB; and C. albicans—SDB, to obtain a final suspension containing about 10^6 CFU/mL.
(§3) The microdilution method was employed to determine the compounds’ MIC (Minimal Inhibitory Concentration) and MBC/MFC (Minimal Bactericidal Concentration/Minimal Fungicidal Concentration) against the tested bacterial and fungal strains.
(§4) The compounds were serially diluted (2-fold) in the respective media (P. aeruginosa, S. aureus, and S. epidermidis—MHB, C. acnes—TGB, and C. albicans—SDB in 96-well plates), and the microbial suspensions were added. The compounds were tested in the final concentration range of 4 096 to 0.125 μg/mL, and the final microbial inoculum was approximately 5 ×10^5 CFU/mL. The tests were incubated at 35 °C ± 1 °C for 18 h (P. aeruginosa, S. aureus, and S. epidermidis) or 24 h (C. albicans) or 48 h (C. acnes). C. acnes was incubated in an anaerobic atmosphere using a GENbag anaer (bioMerieux, France). Media (without the strains) added to the different concentrations of tested compounds and media inoculated with microbial suspension were used as a negative control and growth control, respectively.
(§5) The MIC was defined as the lowest concentration at which visible growth was inhibited. MBC and MFC concentrations were determined as an extension of the MIC test. […] The plates were incubated at 35 ± 1 °C for 18–72 h. C. acnes was incubated in an anaerobic atmosphere. The MBC/MFC was defined as the lowest concentration at which no growth was observed. All tests were performed in duplicate.

[3] = test system: Staphylococcus epidermidis; assay: MIC and MBC determination, microdilution method;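 for all read-outs here: column refers to Staphylococcus epidermidis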; format: cell-based; details: for MIC: 18 h, read-out: MIC, S. epidermidis; for MBC: read-out: MBC, S. epidermidis
Protocol: as §1, §2, §3, §4, §5

Cutibacterium acnes = assay: MIC and MBC determination, microdilution method; format: cell-based; details: for MIC / MBC: Cutibacterium acnes; for MIC: 48 h, read-out: MIC, C. acnes; for MBC: read-out: MBC, C. acnes
Protocol: as §1, §2, §3, §4, §5

Pseudomonas aeruginosa = assay: MIC and MBC determination, microdilution method; format: cell-based; details: for MIC: 18 h, read-out: MIC, P. aeruginosa; for MBC: read-out: MBC, P. aeruginosa
Protocol: as §1, §2, §3, §4, §5

Candida albicans = assay: MIC and MFC determination, microdilution method; format: cell-based; details: for MIC: 24 h, read-out: MIC, C. albicans; for MFC: read-out: MFC, C. albicans
Protocol: as §1, §2, §3, §4, §5

[4] = design: method as in doi:10.1080/10826076.2015.1057642, PMID 22469554, PMID 31982561; details: frequently used topical acne agents; cited from earlier work
[5] = test system: cyclooxygenase-2 (PDB ID: 1CX2); assay: Molecular docking (AutoDock4); details: from docking IC50 values
Protocol: Docking studies were performed using the AutoDock4 program in AutoDockTools 1.5.7.[28] The structures for ligands (reference substances and N-alkylnicotinamide cations) were optimized for energy minimization using the MMFF94 force field in Avogadro 1.2.0 with the steepest descent algorithm and subsequently converted to a PDBQT format using OpenBabelGUI. The three-dimensional structure of target cyclooxygenase-2 (Protein Data Bank ID: 1CX2) was retrieved from Protein Data Bank (http://www.pdb.org) with a resolution of 3.00 Å. The protein molecule 1CX2 was prepared using AutoDockTools version 1.5.7. The preparation process involved checking for missing atoms, repairing any missing atoms, adding polar hydrogens and Kollman charges, and distributing charges over all of the atoms on residues. All cocrystallized compounds present in the 1CX2 structure (including water molecules and the ligand) were removed prior to the calculations. […] The interaction between the ligand and receptor and hydrogen bond lengths were analyzed using AutoDockTools and PLIP (Protein Ligand Interaction Profiler) developed by Biotechnology Center TU Dresden (BIOTEC).

[6] = toxicity range of EC50, read-out: Range
[7] = shake-flask, 25 °C, 24 h, average of six results, read-out: Octanol-water partition coefficient (log Kow)
[8] = immobilization, motionless organisms counted after 24 and 48 h, 25 °C, read-out: EC50
[9] = volume of PBS (pH 7.4) to dissolve 1 g, 25 °C

Row | Structure (SMILES) | Contact angle ([1]; concentration 0.25%) | Contact angle ([1]; concentration 0.50%) | Contact angle ([1]; concentration 1.00%) | EC50 (Artemia franciscana; [6]) | Class (Artemia franciscana) | Solubility in PBS, Class (Solubility in PBS) | logP at 24 h [2, 7] | MIC (Staphylococcus aureus) | MBC (Staphylococcus aureus) | MIC [3] | MBC [3] | MIC (Pseudomonas aeruginosa) | MIC (Candida albicans) | Solubility in PBS, PBS [ml] (Solubility in PBS; [9]) | other results
1 | NC(=O)c1cccnc1 [NA, nicotinamide, reference compound] | 112.7 ° | 110.7 ° | 110.6 ° | > 1000 µg/mL | Relatively Harmless (>1000) | – | – | – | – | – | – | – | – | – | Solubility in PBS, PBS [ml] (Solubility in PBS; pH 7.4): < 1 mL; logP at 24 h [2]: -0.66
2 | CCCCCCCCCCCCCC[n+]1cccc(C(N)=O)c1.O=C([O-])c1ccccc1O [compound 7] | – | – | – | 100 to 1000 µg/mL | Practically Nontoxic (100-1000) | Very Slightly Soluble (1000-10 000) | 1.34 | 0.5 µg/mL | 0.5 µg/mL | 4 µg/mL | 4 µg/mL | 64 µg/mL | 16 µg/mL | – | MIC (Cutibacterium acnes): 4 µg/mL; MBC (Cutibacterium acnes): 4 µg/mL; MBC (Pseudomonas aeruginosa): 64 µg/mL; MFC (Candida albicans): 16 µg/mL; EC50 (Artemia franciscana; [8]): 155 µg/mL
3 | O=C(O)CCCCCCCC(=O)O [azelaic acid] | – | – | – | – | – | – | – | – | – | – | – | – | – | – | log KOW [4]: 1.42
4 | CCCCCCCCCCCC[n+]1cccc(C(N)=O)c1.O=C([O-])c1ccccc1O [compound 6] | – | – | – | 10 to 100 µg/mL | Slightly Toxic (10-100) | Very Slightly Soluble (1000-10 000) | 0.6 | 8 µg/mL | 8 µg/mL | 256 µg/mL | 256 µg/mL | 256 µg/mL | 256 µg/mL | – | MIC (Cutibacterium acnes): 64 µg/mL; MBC (Cutibacterium acnes): 64 µg/mL; MBC (Pseudomonas aeruginosa): 256 µg/mL; times more potent than NA itself [5]: 125 times; MFC (Candida albicans): 256 µg/mL; EC50 (Artemia franciscana; [8]): 89.7 µg/mL
5 | CC[n+]1cccc(C(N)=O)c1.O=C([O-])c1ccccc1O [compound 1] | 112.1 ° | 110.3 ° | 109.7 ° | > 1000 µg/mL | Relatively Harmless (>1000) | Very Soluble (<1) | -1.15 | 1020 µg/mL | – | 4100 µg/mL | – | – | – | < 1 mL | –
6 | CCCC[n+]1cccc(C(N)=O)c1.O=C([O-])c1ccccc1O [compound 2] | 102.7 ° | 104.3 ° | 103.9 ° | > 1000 µg/mL | Relatively Harmless (>1000) | Very Soluble (<1) | -0.7 | 1020 µg/mL | – | 2050 µg/mL | – | – | – | < 1 mL | –
7 | NC(=O)c1cccnc1.O=C(O)c1ccccc1O [[NA][SAL], reference compound] | 110.5 ° | 108.3 ° | 99.9 ° | – | Practically Nontoxic (100-1000) | Sparingly Soluble (30-100) | – | 2050 µg/mL | 2050 µg/mL | 2050 µg/mL | 2050 µg/mL | 2050 µg/mL | 2050 µg/mL | 30 to 100 mL | Contact angle ([1]; concentration 1.00%, listed as cocrystal): 100 °; MBC, C. acnes (Cutibacterium acnes; clinical strain, anaerobic, tested 4 096 to 0.125 μg/mL, b = out of range): did not show bactericidal activity; EC50 (Artemia franciscana): 565 µg/mL; EC50 (Artemia franciscana; read-out: Range): 100 to 1000 µg/mL

From article PMC11372839, “Unraveling the Potential of Vitamin B3-Derived Salts with a Salicylate Anion as Dermal Active Agents for Acne Treatment” (Molecular Pharmaceutics, 2024)
